In US12275729B2 (Merck Sharp & Dohme LLC, priority 2017, dated 2025):

Biological target: IDO1 (Homo sapiens, UniProt P14902)
Experiment: IDO1 Cellular Assay in HeLa Cells Stimulated with IFNγ
Type: cell-based
Conditions: about 48 hours, read-out: Hela IC50
Description: Biological Assays IDO1 Cellular Assay in HeLa Cells Stimulated with IFNγ
HeLa cells were cultured in complete HeLa culture medium (90% EMEM, 10% heat-inactivated fetal bovine serum) and expanded to about 1×10^9 cells. The cells were then collected and frozen down at 1×10^7 cells/vial in 1 mL frozen medium (90% complete HeLa culture medium, 10% DMSO).
Compounds to be tested were serially diluted in ten 3-fold steps in DMSO starting from 10 mM DMSO stocks in Echo low volume plate(s).
Frozen HeLa cells were thawed and transferred into HeLa assay medium (99% complete HeLa culture medium, 1% Pen/Strep) with 20 mL medium/vial of cells. The cells were spun down at 250 g in a table top centrifuge for 5 min and suspended in same volume of HeLa assay medium. The cells were then counted and adjusted to a density of 2×10^5 cells/mL in HeLa assay medium. Sterile L-tryptophan were added to the cells with final concentration of 300 uM L-tryptophan. A small aliquot (2 mL/plate) of HeLa cells were set aside and were not treated with IFNγ, to serve as the Max-E control.
HeLa cells with and without IFNγ were dispensed to the respective wells of 384-well assay plates containing the compounds. The plates were incubated for about 48 hours at a 37° C., 5% CO2 incubator. Afterwards, 12 μL of 0.5 M methyl isonipecotate in dimethyl sulfoxide were added into each well and the plates were sealed and incubated at 37° C. without CO2 overnight. The plates were centrifuged for 1 min at 200×g. The resulting fluorescence was measured in a Spectramax plate reader (Molecular Devices) with a 400 nm excitation filter and a 510 nm emission filter.
Potencies were calculated by […] least squares fit to the four parameter logistic IC50 equation.

IDO1, sequence (P14902 whole entry): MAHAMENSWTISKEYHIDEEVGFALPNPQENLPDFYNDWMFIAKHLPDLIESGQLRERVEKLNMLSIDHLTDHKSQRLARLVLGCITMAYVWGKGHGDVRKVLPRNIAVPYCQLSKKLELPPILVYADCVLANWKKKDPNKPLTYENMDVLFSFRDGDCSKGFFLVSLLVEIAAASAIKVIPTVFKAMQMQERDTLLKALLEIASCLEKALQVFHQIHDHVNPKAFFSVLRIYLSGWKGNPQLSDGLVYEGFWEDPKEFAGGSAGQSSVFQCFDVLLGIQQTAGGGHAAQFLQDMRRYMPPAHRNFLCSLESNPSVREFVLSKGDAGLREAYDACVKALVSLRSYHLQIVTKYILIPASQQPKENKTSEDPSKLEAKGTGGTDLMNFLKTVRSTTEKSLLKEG

Compound	IC50 [nM]
CC(NC(=O)c1ccc(F)cc1)c1ccc2c(n1)C(F)CCN2C(=O)C1CC1 (single isomer, unassigned) [Example 202, N-(1-(5-(cyclopropanecarbonyl)-8-fluoro-5,6,7,8-tetrahydro-1,5-naphthyridin-2-yl)ethyl)-4-fluorobenzamide]	396
CC(C)CC(=O)NCc1ccc2c(c1)CCCN2C(=O)c1cccc(Cl)c1 [Example 17, N-{[1-(3-chlorobenzene-1-carbonyl)-1,2,3.4-tetrahydroquinolin-6-yl]methyl}-3-methylbutanamide]	702
N#Cc1cccc(C(=O)N2CCCc3cc(C4(C(=O)Nc5ccc(F)cn5)CCC4)ccc32)c1 [Example 108, 1-[1-(3-cyanobenzene-1-carbonyl)-1,2,3,4-tetrahydroquinolin-6-yl]-N-(5-fluoropyridin-2-yl)cyclobutane-1-carboxamide]	4.9
O=C(NC1(c2ccc3c(n2)CCCN3C(=O)NC2CC2)CC1)c1ccc(F)cc1 [Example 214, N-cyclopropyl-6-{1-[(4-fluorobenzene-1-carbonyl)amino]cyclopropyl}-3,4-dihydro-1,5-naphthyridine-1(2H)-carboxamide]	159
Cn1cc(C(=O)N2CCCc3nc(C4(NC(=O)c5ccc(F)cc5)CC4)ccc32)cn1 [Example 173, 4-fluoro-N-{1-[5-(1-methyl-1H-pyrazole-4-carbonyl)-5,6,7,8-tetrahydro-1,5-naphthyridin-2-yl]cyclopropyl}benzamide]	39.9
C[C@H](C(=O)Nc1ccc(F)cc1)c1ccc2c(c1)CCCN2C(=O)C1CCC1 [Example 80, (2S)-2-[1-(cyclobutanecarbonyl)-1,2,3,4-tetrahydroquinolin-6-yl]-N-(4-fluorophenyl)propanamide]	4.5
CC(C(=O)Nc1ccc(F)cc1)c1ccc2c(c1)CCCN2C(=O)c1cnco1 (centres unmarked) [Example 49, N-(4-fluorophenyl)-2-[1-(1,3-oxazole-5-carbonyl)-1,2,3,4-tetrahydroquinolin-6-yl]propanamide]	30
CC(C)CC(=O)N1CCCc2cc(CC(=O)Nc3ccc(Cl)cc3)ccc21 [Example 35, N-(4-chlorophenyl)-2-(1-(3-methylbutanoyl)-1,2,3,4-tetrahydroquinolin-6-yl)acetamide]	6.9

Second part, the compound after the results:

IC50 [nM]	Compound
7.2	CC(C(=O)Nc1ccc(F)cc1)c1ccc2c(c1)CCCN2C(=O)C1(C(F)(F)F)CC1 (centres unmarked) [Example 66, N-(4-fluorophenyl)-2-{1-[1-(trifluoromethyl)cyclopropane-1-carbonyl]-1,2,3,4-tetrahydroquinolin-6-yl}propanamide]
4.3	C=CCC(C(=O)Nc1ccc(F)cc1)c1ccc2c(c1)CCCN2C(=O)c1cccc(Cl)c1 (centres unmarked) [Example 58, 2-[1-(3-chlorobenzene-1-carbonyl)-1,2,3,4-tetrahydroquinolin-6-yl]-N-(4-fluorophenyl)pent-4-enamide]
26.2	O=C(Nc1ccc(F)cn1)C1(c2ccc3c(c2)CCCN3S(=O)(=O)C2CC2)CCC1 [Example 124, 1-[1-(cyclopropylsulfonyl)-1,2,3,4-tetrahydroquinolin-6-yl]-N-(5-fluoropyridin-2-yl)cyclobutane-1-carboxamide]
4.3	CC(C)CC(=O)N1CCCc2cc(C(C)NC(=O)c3ccc(Cl)cc3)ccc21 (single isomer, unassigned) [Example 26, 4-chloro-N-{1-[1-(3-methylbutanoyl)-1,2,3,4-tetrahydroquinolin-6-yl]ethyl}benzamide]
49.3	CC(C)CC(=O)N1CCCc2cc(CNC(=O)c3ccc(Cl)c(F)c3)ccc21 [Example 9, 4-chloro-3-fluoro-N-{[1-(3-methylbutanoyl)-1,2,3,4-tetrahydroquinolin-6-yl]methyl}benzamide]

Same assay, conditions: read-out: Hela IC50

IC50 [nM]	Compound
88.2	CC(NC(=O)c1ccc(C#N)cc1)c1ccc2c(n1)CCCN2C(=O)OC1CC1 (centres unmarked) [Example 337, cyclopropyl 6-(1-(4-cyanobenzamido)ethyl)-3,4-dihydro-1,5-naphthyridine-1(2H)-carboxylate]
